23 compounds from patent US6291677A, “Compounds having activity as inhibitors of cytochrome P450RAI” (Allergan Sales, Inc., priority 2000, dated 2001) can be followed below.

In one data set the test system is RARα. The experiment in a line: chimeric receptor transactivation assay, RARα. It counts as cell-based. To be noted: unit assumed. From the text: (§1) Assays described below measure the ability of a compound to bind to, and/or activate various retinoid receptor subtypes. When in these assays a compound binds to a given receptor subtype and activates the transcription of a reporter gene through that subtype, then the compound is considered an agonist of that receptor subtype. […] In the below described assays the ability of the compounds to bind to RARα, RARβ, RARγ,RXRα, RXRβ and RXRγ receptors, and the ability or inability of the compounds to activate transcription of a reporter gene through these receptor subtypes can be tested.
(§2) The results obtained in this assay are expressed in EC50 numbers, as they are also in the chimeric receptor transactivation assay. The results of ligand binding assay are expressed in Kd numbers.

The next data set deals with RARβ. The experiment in a line: chimeric receptor transactivation assay, RARβ. As to conditions: unit assumed. It counts as cell-based.
Description: as §1, §2

A further data set relates to RARγ. The experiment in a line: chimeric receptor transactivation assay, RARγ. It counts as cell-based. To be noted: unit assumed.
Description: as §1, §2

The next data set deals with skin of hairless mice. As to the kind of experiment: topical skin irritation test in hairless mice. It counts as in vivo, female hairless mice (Crl:SKH1-hrBR). As to conditions: once daily days 1 through 5, mean±SD. An excerpt:
Mice were housed individually throughout the dosing period.
Doses are disclosed as nmol/25 g.
The grading scale used is as follows:
Values can range from 0-9.
Values can range from 0-8.

In the case of `CN(C1CC1)C1CCC(C)(C)c2cc(C#Cc3ccc(C(=O)O)cc3)ccc21` (stereo not shown) [Compound 3, 4-[(5-Cyclopropyl-methyl-amino)-8,8-dimethyl-5,6,7,8-tetrahydro-naphthalene-2yl-ethynyl]-benzoic acid], the (EFFICACY) RAR α with RARα came to 28%. The (EFFICACY) RAR β with RARβ amounted to 54%. Also, the (EFFICACY) RAR γ with RARγ was found to be 52%.

In the data set on RARβ, `CC1(C)CCC(=O)c2ccc(C#Cc3ccc(CC(=O)O)cc3)cc21` [Compound 5, 4-[(8,8-Dimethyl-5-oxo-5,6,7,8-tetrahydro-naphthalene-2-yl-ethynyl)-phenyl]-acetic acid] came in with a (EFFICACY) RAR β of 36%. In addition, the “Cutaneous Toxicity Score (Blackjack Score)” value (shortened to “Cutaneous Toxicity Score”) came to 0 in the data set on skin of hairless mice (100 nmole) and 6 ± 3 with skin of hairless mice (1000 nmole).

In the data set on RARα, `CC1(C)CCC(=O)c2ccc(C#Cc3ccc(C(=O)O)c(F)c3)cc21` [Compound 10, 2-Fluoro-4-(8,8-dimethyl-5-oxo-5,6,7,8-tetrahydro-naphthalen-2yl-ethynyl)-benzoic acid] came in with a (EFFICACY) RAR α of 146%. The compound further gave a (EFFICACY) RAR β in the data set with RARβ of 86%. Moreover, the (EFFICACY) RAR γ with RARγ came out at 94%.

Consider `CN(C1CC1)C1CCC(C)(C)c2cc(C#Cc3ccc(C(=O)O)c(F)c3)ccc21` (stereo not shown) [Compound 13, 4-[5-(Cyclopropyl-methyl-amino)-8,8-dimethyl-5,6,7,8-tetrahydro-naphthalene-2-yl-ethynyl]-2-fluoro benzoic acid], for which, in the data set on RARβ, the (EFFICACY) RAR β was determined as 6.6%. The same compound yielded a (EFFICACY) RAR γ with RARγ of 9%.

For the compound `CC1(C)CCC(=O)c2ccc(C#Cc3ccc(CC(=O)O)c(F)c3)cc21` [Compound 15, [2-Fluoro-4-(8,8-dimethyl-5-oxo-5,6,7,8-tetrahydro-naphthalene-2-yl-ethynyl)phenyl]-acetic acid], the “Cutaneous Toxicity Score” value with skin of hairless mice (100 nmole) was 1 ± 1; in the data set with skin of hairless mice (1000 nmole) it was 5 ± 2.

In the case of `CN(C1CC1)C1CCC(C)(C)c2cc(C#Cc3ccc(CC(=O)O)c(F)c3)ccc21` (stereo not shown) [Compound 18, [4-(5-(Cyclopropyl-methyl-amino)-8,8-dimethyl-5,6,7,8-tetrahydro-naphthalene-2-yl-ethynyl)-2-fluoro-phenyl]-acetic acid], the “Cutaneous Toxicity Score” value is recorded as 0 ± 0 in the data set with skin of hairless mice (100 nmole), 1 ± 1 with skin of hairless mice (300 nmole) and 10 ± 2 in the data set on skin of hairless mice (1000 nmole).

For the compound `CC1(C)CN(C2CC2)Cc2ccc(C#Cc3ccc(CC(=O)O)c(F)c3)cc21` [Compound 22, [4-(2-Cyclopropyl-4,4-dimethyl-1,2,34-tetrahydro-isoquinolin-6-yl-ethynyl)-2-fluoro-phenyl]-acetic acid], the “Cutaneous Toxicity Score” value worked out at 0 ± 0 with skin of hairless mice (100 nmole), 0 ± 0 in the data set on skin of hairless mice (300 nmole) and 1 ± 1 in the data set on skin of hairless mice (1000 nmole).

With `CC1(C)CC(C)(C)c2cc(C#Cc3ccc(CC(=O)O)cc3)cc(C3CC3)c2O1` [Compound 36, [4-(8-Cyclopropyl-2,2,4,4-tetramethyl-chroman-6-yl-ethynyl)phenyl]acetic acid], the results for the “Cutaneous Toxicity Score” value in the data set with skin of hairless mice (100 nmole) and in the data set on skin of hairless mice (1000 nmole) were 1 ± 1 and 11 ± 0, respectively.

For the compound `CC1(C)CC2(CC2)Oc2ccc(C#Cc3ccc(C(=O)O)cc3)cc21` [Compound 40, Benzoic acid, 4-[(3,4-dihydro-4,4-dimethylspiro[2H-1-benzopyran-2,1'-cyclopropane]-6-yl)ethynyl]-], the (EFFICACY) RAR α in the data set with RARα came to 207%. In addition, in the data set with RARβ, the (EFFICACY) RAR β stood at 126%. The same compound registered a (EFFICACY) RAR γ with RARγ of 140%.

The compound `CC1(C)CC2(CC2)Oc2ccc(C#Cc3ccc(C(=O)O)c(F)c3)cc21` [Compound 44, 2-Fluoro-benzoic acid 4-[(3,4-dihydro-4,4-dimethylspiro[2H-1-benzopyran-2,1'-cyclopropane]-6-yl)ethynyl]-] displayed a (EFFICACY) RAR α in the data set with RARα of 138%. In addition, the (EFFICACY) RAR β in the data set on RARβ came to 100%. In the data set with RARγ, this compound yielded a (EFFICACY) RAR γ of 116%.

For `CC1(C)CC2(CC2)Oc2c(C3CC3)cc(C#Cc3ccc(CC(=O)O)cc3)cc21` [Compound 48, Benzeneacetic acid, 4-[(8-cyclopropyl-3,4-dihydro-4,4-dimethylspiro[2H-1-benzopyran-2,1'-cyclopropane]-6-yl)ethynyl]-], the “Cutaneous Toxicity Score” value is 1 ± 1 with skin of hairless mice (100 nmole), 3 ± 1 in the data set with skin of hairless mice (300 nmole) and 7 ± 2 with skin of hairless mice (1000 nmole).

In the case of `CC1(C)CC2(CC2)Oc2c(C3CC3)cc(C#Cc3ccc(CC(=O)O)c(F)c3)cc21` [Compound 50, 4-[(8-Cyclopropyl-3,4-dihydro-4,4-dimethylspiro[2H-1-benzopyran-2,1'-cyclopropane]-6-yl)ethynyl]-2-fluoro-benzeneacetic acid], the “Cutaneous Toxicity Score” value is listed as 1 ± 0 in the data set on skin of hairless mice (100 nmole), 3 ± 2 in the data set on skin of hairless mice (300 nmole) and 8 ± 2 with skin of hairless mice (1000 nmole).

In the case of `CC1(C)CC2(CC2)Oc2c(C3CC3)cc(C(=O)Oc3ccc(CC(=O)O)cc3)cc21` [Compound 58], the “Cutaneous Toxicity Score” value with skin of hairless mice (100 nmole), in the data set with skin of hairless mice (300 nmole) and in the data set on skin of hairless mice (1000 nmole) was 0 ± 0 throughout.

In turn, `COC1(c2ccc(C#Cc3ccc(C(=O)O)cc3)cc2)CC1` [Compound 69, 4-[4-(1-Methoxycyclopropyl)-phenylethynyl]-benzoic acid] returned a (EFFICACY) RAR α with RARα of 10%. Besides, the (EFFICACY) RAR β with RARβ turned out to be 50%. This compound also gave a (EFFICACY) RAR γ with RARγ of 31%.

`CC(C)OC1(c2ccc(C#Cc3ccc(C(=O)O)cc3)cc2)CC1` [Compound 73, 4-[4-(1-Isopropoxycyclopropyl)-phenylethynyl]-benzoic acid]: the (EFFICACY) RAR β in the data set on RARβ was determined as 39%. In the data set on RARγ, this compound gave a (EFFICACY) RAR γ of 24%.

Take `Cc1cc(C#Cc2ccc(C(=O)O)cc2)ccc1C1(OCc2ccccc2)CC1` [Compound 81, 4-[4-(1-Benzyloxycyclopropyl)-3-methyl-phenylethynyl]-benzoic acid]: the (EFFICACY) RAR β in the data set on RARβ turned out to be 80%. In the data set on RARγ, this compound yielded a (EFFICACY) RAR γ of 67%.

In the data set on RARα, `Cc1cc(C#Cc2ccc(C(=O)O)cc2)ccc1C1(OC(C)C)CC1` [Compound 85, 4-[4-(1-Isopropoxycyclopropyl)-3-methyl-phenylethynyl]-benzoic acid] had a (EFFICACY) RAR α of 60%. Moreover, the (EFFICACY) RAR β in the data set on RARβ turned out to be 77%. Moreover, the (EFFICACY) RAR γ with RARγ came out at 65%.

For the compound `Cc1cc(C#Cc2ccc(C(=O)O)cc2)ccc1C1(OCC(C)(C)C)CC1` [Compound 89, 4-[4-[1-(2,2-Dimethylpropyloxy)-cyclopropyl]-3-methyl-phenylethynyl]-benzoic acid], in the data set on RARα, the (EFFICACY) RAR α is 20%. The compound further gave a (EFFICACY) RAR β in the data set with RARβ of 50%. The (EFFICACY) RAR γ in the data set with RARγ was found to be 46%.

On to `CCc1cc(C#Cc2ccc(C(=O)O)cc2)ccc1C1(OCc2ccccc2)CC1` [Compound 93, 4-[4-(1-Benzyloxycyclopropy)-3-ethyl-phenylethynyl]-benzoic acid], for which the (EFFICACY) RAR α in the data set on RARα amounted to 114%. This compound also registered a (EFFICACY) RAR β with RARβ of 39%. This compound also came in with a (EFFICACY) RAR γ in the data set with RARγ of 55%.

`CCCNC1(c2ccc(C#Cc3ccc(C(=O)O)cc3)cc2)CC1` [Compound 108, 4-[4-(1-Propylamino-cyclopropyl)-phenylethynyl]-benzoic acid]: in the data set on RARα, the (EFFICACY) RAR α came out at 15%. The same compound returned a (EFFICACY) RAR β in the data set on RARβ of 36%. Further, the (EFFICACY) RAR γ with RARγ was determined as 10%.

In the case of `CCCN(CCC)C1(c2ccc(C#Cc3ccc(C(=O)O)cc3)cc2)CC1` [Compound 110, 4-[4-(1-Dipropylamino-cyclopropyl)-phenylethynyl]-benzoic acid], the (EFFICACY) RAR β in the data set with RARβ was determined as 44%. This compound displayed a (EFFICACY) RAR γ with RARγ of 42%.

In the case of `O=C(O)c1ccc(C#Cc2ccc(C3(NCc4ccccc4)CC3)cc2)cc1` [Compound 112], the (EFFICACY) RAR β with RARβ was 37%.

Regarding `CC1(C)CCC(n2ccnc2)c2ccc(C#Cc3ccc(CC(=O)O)cc3)cc21` (stereo not shown) [Compound 137, [4-(5-Imidazol-1-yl-8,8-dimethyl-5,6,7,8-tetrahydro-naphthalen-2-yl-ethynyl)-phenyl]-acetic acid], the figures for the “Cutaneous Toxicity Score” value in the data set on skin of hairless mice (100 nmole), in the data set with skin of hairless mice (300 nmole) and in the data set on skin of hairless mice (1000 nmole) were 1 ± 1, 1 ± 1 and 5 ± 2, respectively.
